Laboratory results reported in patent US9670139B2, “Telomerase activating compounds and methods of use thereof” (BEN-GURION UNIVERSITY OF THE NEGEV RESEARCH AND DEVELOPMENT …, priority 2007, dated 2017).

Experiments:
[1] = tested on: murine B-cell leukemia lymphoma (BCL1) cells; assay: BCL1 tumorigenicity in (BALB/c×C57BL/6)F1 mice; format: in vivo, mouse; details: mice inoculated with 10^5 BCL1 cells; Compound 77 10 mM
Protocol: (BALB/c×C57BL/6)F1 mice were inoculated with 10^5 murine B-cell leukemia lymphoma (BCL1) cells. Splenomegaly and lymphocytosis (leukemia) developed in all controls and in mice treated with telomerase-activating compounds (40 or 80 mg/kg).

telomerase [2] = assay: Telomerase expression in rat brain cortex after subcutaneous injection (immunofluorescence); format: in vivo
Source text: The effect of compounds of the present invention injected subcutaneously into female rats and adult male mice on telomerase expression in various regions of the brain was examined.

[3] = Graft-versus-host disease (GVHD) induced by C57BL/6 spleen cells; format: in vivo, mouse; details: F1 mice inoculated with 30×10^6 C57BL/6 spleen cells
Source text: (BALB/c×C57BL/6)F1 mice were inoculated with 30×10^6C57BL/6 spleen cells for induction of GVHD.

C. elegans = assay: Lifespan extension of nematodes (C. elegans); format: in vivo; details: 50 micromolar; for Lifespan extension (%): Table 2, versus untreated controls; for Lifespan %: table of scaffold drawing 36, mean lifespan versus control
Protocol: Nematodes (C. elegans) were administered tri-phenyl telomerase-activating compounds presented in the following tables, and telomerase activity and/or expression was measured in terms of nematode lifespan extension. Nematodes were grown with the activators at 50 micromolar concentration, and the mean, maximum and half-life for Compound 68 and Compound 77, two representative molecules, was measured versus that of the control (FIG. 8). Values represent mean lifespan.
Survival of the C. elegans, a nematode that normally survives for 12-14 days, represents an acceptable model for studying life extension. Nematodes were administered tri-phenyl telomerase-activating compounds and their effect on the nematode lifespan extension was determined. Nematodes were grown with the activators at a concentration of 50 micromolar, and mean, maximum and half-life were measured in comparison with untreated controls. Lifespan increased by 13-43% (Table 2), and the median lifespan increased approximately 2-fold (from 12 days to 22 days, as shown in FIG. 8).

Human keratinocytes = assay: Proliferation and survival of senescent human keratinocytes; format: cell-based; details: fifth passage keratinocytes
Protocol: Human keratinocytes which had lost their ability to proliferate (in their fifth passage) were obtained from a local skin bank and treated with Compound 68 for 24 h. Cell viability, cell number and morphology was examined.

telomerase [4] = molecular target: T1, telomerase (Homo sapiens, UniProt O14746); assay: Telomerase activity in RPE cells (quantitative telomerase detection kit, real time PCR); format: cell-based; design: endogenous in cells; host or cells: human retinal pigmented epithelial (RPE) cells; details: FIG. 7B
T1 sequence (O14746 whole entry): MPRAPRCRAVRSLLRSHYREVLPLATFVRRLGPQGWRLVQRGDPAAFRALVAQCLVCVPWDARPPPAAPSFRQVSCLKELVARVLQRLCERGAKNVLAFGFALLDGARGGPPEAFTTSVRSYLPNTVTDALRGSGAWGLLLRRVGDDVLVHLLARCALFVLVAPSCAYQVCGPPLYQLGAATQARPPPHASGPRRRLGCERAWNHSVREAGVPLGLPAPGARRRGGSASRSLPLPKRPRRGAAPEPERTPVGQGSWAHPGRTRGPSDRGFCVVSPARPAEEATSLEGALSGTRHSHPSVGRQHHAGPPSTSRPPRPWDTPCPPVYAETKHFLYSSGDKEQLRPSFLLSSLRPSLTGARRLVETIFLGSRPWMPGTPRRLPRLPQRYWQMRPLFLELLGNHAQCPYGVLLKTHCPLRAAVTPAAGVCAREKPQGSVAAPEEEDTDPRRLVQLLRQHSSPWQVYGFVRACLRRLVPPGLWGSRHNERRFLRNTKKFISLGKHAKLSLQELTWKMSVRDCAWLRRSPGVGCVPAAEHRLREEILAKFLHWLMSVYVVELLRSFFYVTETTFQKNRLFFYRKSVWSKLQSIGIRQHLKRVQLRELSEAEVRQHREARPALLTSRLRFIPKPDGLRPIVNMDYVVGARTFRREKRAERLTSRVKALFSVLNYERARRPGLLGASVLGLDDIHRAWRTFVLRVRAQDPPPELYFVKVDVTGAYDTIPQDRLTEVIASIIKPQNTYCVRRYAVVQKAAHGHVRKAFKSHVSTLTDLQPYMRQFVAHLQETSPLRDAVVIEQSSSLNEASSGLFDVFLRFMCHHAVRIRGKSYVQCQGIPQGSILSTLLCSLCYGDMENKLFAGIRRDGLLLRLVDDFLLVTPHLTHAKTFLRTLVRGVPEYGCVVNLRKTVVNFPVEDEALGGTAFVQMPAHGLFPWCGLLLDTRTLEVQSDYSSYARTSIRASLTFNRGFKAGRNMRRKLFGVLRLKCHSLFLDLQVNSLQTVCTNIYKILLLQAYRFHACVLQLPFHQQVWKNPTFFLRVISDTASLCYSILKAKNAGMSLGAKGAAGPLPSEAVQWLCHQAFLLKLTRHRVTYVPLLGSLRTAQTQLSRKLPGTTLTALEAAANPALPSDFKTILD
Source text: FIG. 7: A. The effect of compounds of the present invention on human retinal pigmented epithelial cells under oxidative stress. B. The effect of compounds on telomerase activity in RPE cells (measured by a quantitative telomerase detection kit-real time PCR).
Chronic exposure of human retinal pigmented epithelial (RPE) cells to oxidative stress predisposes them to the development of age-related macular degeneration (AMD). Human RPE cells were exposed to oxidative stress by treatment with H2O2 (1 mM) for 24 hours, and H2O2 (0.5 mM) for another 24 hours. The cells were then treated daily for two days with the indicated compounds in the absence of H2O2. Increased cell growth was observed as a consequence of treatment with the compounds (FIG. 7A). Telomerase activity was enhanced in RPE cells treated with compounds 68 and 79 by 30- and 50-fold, respectively (FIG. 7B).

telomerase [5] = molecular target: T1, telomerase; assay: Real time PCR quantification of telomerase activity in hMSC nuclear extracts; format: cell-based; design: endogenous in cells; details: 250 nM
Protocol: FIG. 5: Activation of telomerase expression in hMSC by compounds of the present invention. A.—hMSC were treated with 250 nM of Compounds 79, 77 and 68 for 6 hours. Immunofluorescence was performed with anti-hTERT antibody (red) and the nucleus was stained with DAPI (blue). B. hMSC treated with compound 79 for 6 and 24 h. Telomerase activity was measured by real time PCR using a quantitative telomerase detection kit (Allied Biotech Inc., USA).
The possibility that compounds of the present invention enhance hMSC survival and proliferation by activation of TERT was examined by culturing hMSC (p 3) in a tissue culture chamber slide at 17×10^3 cells/well for 60 h. Compounds of the present invention were added for 6 h with fresh medium. Immunofluorescence with anti-hTERT antibody (first antibody) and cy3 fluorescent secondary antibody was carried out. The nucleus was stained with DAPI. Compounds of the present invention activated telomerase expression in hMSC (FIG. 5). […] Degree of activation of telomerase expression was Compound 68>79>77. Quantification of telomerase activity in hMSC was performed by Real time PCR (Quantification telomerase detection kit) in nuclear extracts derived from hMSC treated with compound 79 (250 nM) for 6 or 24 h. Compound 79 enhanced telomerase activity in hMSC by 12- or 6-fold in a time-dependent manner (FIG. 5B).

mouse cerebellum = assay: Prevention of glutamate-induced apoptosis in mouse cerebellum slices; format: in vivo; details: 6 mg/kg, 24 h; slices treated with glutamate 30 min
Protocol: The ability of compounds of the present invention to prevent glutamate-induced apoptosis in mouse cerebellum was examined. Mice were injected with 6 mg/kg of Compound 79 or with vehicle only. Mice were sacrificed 24 h after treatment and their brains were removed. Cerebellum slices were prepared and subjected to glutamate treatment at various concentrations for 30 min. Sections were stained with propidium iodide and the number of apoptotic cells was counted and calculated using specific software (Jimage). Prevention of apoptosis in mice treated with compounds of the present invention was calculated as a percentage relative to control mice (FIG. 13). This supports a role for compounds of the present invention in treating seizures, stroke, Alzheimer's disease, epilepsy, schizophrenia, and alcohol and opiate addition.

telomerase [6] = assay: Telomerase expression in mouse brain regions after subcutaneous injection (immunofluorescence); format: in vivo; details: three-month-old male mice, 24 h
Protocol: Compound 79 was injected subcutaneously into three-month-old male mice. The mice were sacrificed 24 h later and the cortex, cerebellum, hippocampus, hypothalamus, brain stem and olfactory bulb isolated and subjected to immunofluorescence. […] This activation appeared to be specific for certain neuronal cells.

telomerase [7] = assay: Telomerase expression in mouse heart protein extracts; format: in vivo; details: after injection, one mouse
Protocol: The activation of telomerase by compounds of the present invention in heart protein extracts derived from one mouse was measured (FIG. 14). […] This supports a role for compounds of the present invention in treating infarct, ischemia, myocarditis, etc.

CN(C)Cc1cc(C(C)(c2cc(CN(C)C)c(O)c(CN(C)C)c2)c2cc(CN(C)C)c(O)c(CN(C)C)c2)cc(CN(C)C)c1O [Compound 77]
Survival Median (range) [1]: 26 (22-41)
expression of telomerase in the brain cortex (telomerase [2]): significantly activated
signs of acute GVHD (weight loss) versus untreated controls [3]: more severe signs of acute GVHD
Lifespan extension (%) (C. elegans): 43%
Lifespan % (C. elegans): 43%

CCOCc1cc(C(C)(c2cc(COCC)c(O)c(COCC)c2)c2cc(COCC)c(O)c(COCC)c2)cc(COCC)c1O [Compound 79]
cell survival effect on keratinocytes (comparison) (Human keratinocytes): better cell survival effect than Compound 68
expression of telomerase in the brain cortex (telomerase [2]): significantly activated
enhancement of telomerase activity in RPE cells (telomerase [4]): 50 fold
Lifespan extension (%) (C. elegans): 16%
Lifespan % (C. elegans): 16%
enhancement of telomerase activity in hMSC (telomerase [5]; 6 h): 12 fold
enhancement of telomerase activity in hMSC (telomerase [5]; 24 h): 6 fold
glutamate-induced apoptosis in mouse cerebellum (mouse cerebellum): Prevention of glutamate-induced apoptosis
telomerase expression in motor-neuronal cells of the brain stem (telomerase [6]): increased telomerase expression
telomerase expression in the various brain regions (telomerase [6]): significantly and dramatically increased
heart telomerase expression (telomerase [7]): significant increase
